The values that follow come from patent US11352399B2, “Peptide for toll-like receptor (TLR) inhibition and pharmaceutical composition comprising same” (GENESEN CO., LTD., priority 2017, dated 2022).

The target of one assay is T1, TLR9 (Mus musculus, UniProt Q9EQU3).
T1 construct: host or cells: RAW 264.7
T1 sequence (Q9EQU3 26-1032): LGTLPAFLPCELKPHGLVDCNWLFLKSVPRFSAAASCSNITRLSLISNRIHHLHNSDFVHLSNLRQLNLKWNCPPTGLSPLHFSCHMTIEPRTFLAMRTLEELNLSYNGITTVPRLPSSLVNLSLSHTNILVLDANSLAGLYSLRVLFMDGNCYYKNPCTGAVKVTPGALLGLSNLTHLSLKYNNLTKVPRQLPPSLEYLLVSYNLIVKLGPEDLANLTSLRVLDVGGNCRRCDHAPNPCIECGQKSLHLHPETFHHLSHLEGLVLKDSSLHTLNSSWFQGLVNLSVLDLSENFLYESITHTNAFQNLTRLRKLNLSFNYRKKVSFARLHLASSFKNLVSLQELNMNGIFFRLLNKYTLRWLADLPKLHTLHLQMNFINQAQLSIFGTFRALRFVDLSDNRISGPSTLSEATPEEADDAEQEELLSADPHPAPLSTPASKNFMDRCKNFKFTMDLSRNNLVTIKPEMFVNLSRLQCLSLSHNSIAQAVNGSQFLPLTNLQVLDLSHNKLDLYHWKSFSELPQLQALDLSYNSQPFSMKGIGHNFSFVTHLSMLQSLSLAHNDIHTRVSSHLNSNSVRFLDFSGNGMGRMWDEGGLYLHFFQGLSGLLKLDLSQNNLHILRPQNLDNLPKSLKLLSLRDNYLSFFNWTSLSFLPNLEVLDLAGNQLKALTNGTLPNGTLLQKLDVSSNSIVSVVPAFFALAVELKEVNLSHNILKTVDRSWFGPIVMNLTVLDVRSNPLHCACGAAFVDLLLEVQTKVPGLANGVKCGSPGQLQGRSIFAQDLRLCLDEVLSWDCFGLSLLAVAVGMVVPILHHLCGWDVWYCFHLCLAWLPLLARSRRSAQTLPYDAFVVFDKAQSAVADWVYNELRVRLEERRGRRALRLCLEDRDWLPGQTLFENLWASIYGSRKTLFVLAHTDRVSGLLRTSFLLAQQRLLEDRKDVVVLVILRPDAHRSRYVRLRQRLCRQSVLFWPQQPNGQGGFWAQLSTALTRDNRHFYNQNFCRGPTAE
As to the kind of experiment: TNF-α secretion in RAW 264.7 cells with CpG-ODN. The format is cell-based.

In the next assay the test system is NLRP3 inflammasome. The experiment in a line: IL-1β secretion (ELISA) in LPS/ATP-treated mBMDM cells. The format is cell-based, mouse. Conditions: TIP1 and LPS/ATP.
Assay [1] concerns C57BL/6J mice, mouse sepsis model. As to the kind of experiment: Renal and hepatic damage markers and cytokines in plasma, mouse sepsis model (24 hours). Particulars: TIP1 and LPS. In kind it is in vivo. As for the experimental part: Using the isolated plasma, secretion levels of TNF-α and IL-6 were measured by the method in Experimental Example 9, and changes in secretion levels of the renal damage markers, blood urea nitrogen (BUN) and creatinine (Cr), and the hepatic damage markers, aspartate aminotransferase (AST) and alanine aminotransferase (ALT) were analyzed through VETTEST-8008-system (IDEXX). The results are illustrated in FIGS. 16(a)-16(f).

Assay [2] concerns collagen-induced arthritis (CIA) model DBA/1J mice. The experiment in a line: Collagen-induced arthritis (CIA) model. The format is in vivo, mouse. On the procedure:
Specifically, chicken collagen type II (Sigma-Aldrich Co. LLC) and complete Freund's adjuvant (Sigma-Aldrich Co. LLC.) were mixed at 1:1 and emulsified. Then, 100 μg of the emulsified collagen solution was injected intradermally into the mouse tail to induce primary immunization, which was designated day 0. After 14 days of the primary immunization, the emulsified collagen solution was injected again intradermally into the mouse tail to induce secondary immunization (boosting).
These plans included a total of seven experimental groups (n=8) and named as follows: (1) Non-treated, normal group (normal); (2) control (vehicle-treated) (CIA, n=8); (3) 2.5 nmol/g TIP1-treated group (CIA-TIP1 (2.5 nmol/g)); (4) 5 nmol/g TIP1-treated group (CIA-TIP1 (5 nmol/g)); (5) 10 nmol/g TIP1-treated group (CIA-TIP1 (10 nmol/g)); (6) 5 μg/g prednisolone (conventional therapeutic agent for arthritis)-treated group (CIA-prednisolone (5 μg/g)); (7) 10 nmol/g TIP1-treated group in post-arthritis phase (PAP) (PAP CIA-TIP1 (10 nmol/g)). TIP1 and prednisolone were dissolved in saline and injected intraperitoneally. Then, changes in behavioral development and disorders such as apparent symptoms and body weight, mouse squeaking, foot volume, and arthritis index were analyzed. The results are illustrated in FIGS. 19(a) and 19(b) and 20(a)-20(d).
Then, the mice were sacrificed on day 45 and joint tissues were sampled. Subsequently, 3D images and bone mineral density (BMD) of the joint tissues were analyzed through micro-computed tomography (Micro-CT). […] The results are illustrated in FIGS. 21 and 22.

A further assay relates to hPBMC cells. The experiment in a line: NO secretion in LPS-treated hPBMC cells. The format is cell-based, human. Particulars: together with LPS, FIG. 12(b).
For a further assay, the system named is TLR7/8. The experiment in a line: TNF-α secretion in RAW 264.7 cells with R848. The format is cell-based, mouse.
Another assay relates to RAW 264.7 cells. As to the kind of experiment: Intracytoplasmic NO and ROS (DAF-FM, DCF-DA) in RAW 264.7 cells. In kind it is cell-based, mouse. Conditions: TIP1 and LPS. As for the experimental part:
RAW 264.7 cells were dispensed into 6-cm dishes (SPL Life Sciences, Pocheon, Korea) to a cell number of 1×10^6 cells/well and incubation was performed overnight. Subsequently, treatment with TIP1 was performed and respective staining with DAF-FM and DCF-DA (Thermo Fisher Scientific, Inc.) was performed. Then, incubation was performed for 1 hour. Thereafter, the cells were collected by centrifugation at 200×g for 5 minutes, transferred to brown tubes, and stored in PBS at a temperature of 4° C. The intensities of DAF-FM, DCF-DA fluorescent materials were measured using FACSAria III with Diva software (BD Biosciences), and quantified.
In addition, according to the method described in Example 2-7, a NO level in the culture supernatant of RAW 264.7 cells was measured using a NO detection kit. The results are illustrated in FIGS. 5(a)-5(c).

In a further assay the target is T2, TLR1/2 (Mus musculus, UniProt Q9EPQ1+Q9QUN7).
T2 construct: host or cells: RAW 264.7
The experiment in a line: TNF-α secretion in RAW 264.7 cells with PAM3CSK4. In kind it is cell-based.

Where [3] appears, read: TIP1 2.5, 5, 10 nmol/g i.p. daily, compared with prednisolone 5 mg/kg.

T2 sequence (Q9EPQ1 26-795): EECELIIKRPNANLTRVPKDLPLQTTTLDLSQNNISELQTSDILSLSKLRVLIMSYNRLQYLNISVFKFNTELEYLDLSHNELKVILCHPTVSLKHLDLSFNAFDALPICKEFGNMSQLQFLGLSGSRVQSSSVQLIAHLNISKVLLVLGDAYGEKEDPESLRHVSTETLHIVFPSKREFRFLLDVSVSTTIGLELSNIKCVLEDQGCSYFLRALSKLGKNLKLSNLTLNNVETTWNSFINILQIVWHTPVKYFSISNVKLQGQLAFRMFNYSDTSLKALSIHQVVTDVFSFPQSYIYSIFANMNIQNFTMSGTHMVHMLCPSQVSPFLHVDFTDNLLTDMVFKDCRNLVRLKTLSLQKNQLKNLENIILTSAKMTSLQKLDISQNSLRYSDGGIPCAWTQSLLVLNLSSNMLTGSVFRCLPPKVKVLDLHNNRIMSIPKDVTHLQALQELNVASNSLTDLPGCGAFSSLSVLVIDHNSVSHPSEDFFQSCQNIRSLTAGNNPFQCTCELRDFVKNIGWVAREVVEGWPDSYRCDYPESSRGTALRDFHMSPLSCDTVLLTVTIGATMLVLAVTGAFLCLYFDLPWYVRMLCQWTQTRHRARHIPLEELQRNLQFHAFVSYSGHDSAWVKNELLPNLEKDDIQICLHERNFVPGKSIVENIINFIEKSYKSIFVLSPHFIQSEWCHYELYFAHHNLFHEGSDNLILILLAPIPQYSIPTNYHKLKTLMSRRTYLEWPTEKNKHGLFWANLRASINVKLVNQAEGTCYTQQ
T2 sequence (Q9QUN7 25-784): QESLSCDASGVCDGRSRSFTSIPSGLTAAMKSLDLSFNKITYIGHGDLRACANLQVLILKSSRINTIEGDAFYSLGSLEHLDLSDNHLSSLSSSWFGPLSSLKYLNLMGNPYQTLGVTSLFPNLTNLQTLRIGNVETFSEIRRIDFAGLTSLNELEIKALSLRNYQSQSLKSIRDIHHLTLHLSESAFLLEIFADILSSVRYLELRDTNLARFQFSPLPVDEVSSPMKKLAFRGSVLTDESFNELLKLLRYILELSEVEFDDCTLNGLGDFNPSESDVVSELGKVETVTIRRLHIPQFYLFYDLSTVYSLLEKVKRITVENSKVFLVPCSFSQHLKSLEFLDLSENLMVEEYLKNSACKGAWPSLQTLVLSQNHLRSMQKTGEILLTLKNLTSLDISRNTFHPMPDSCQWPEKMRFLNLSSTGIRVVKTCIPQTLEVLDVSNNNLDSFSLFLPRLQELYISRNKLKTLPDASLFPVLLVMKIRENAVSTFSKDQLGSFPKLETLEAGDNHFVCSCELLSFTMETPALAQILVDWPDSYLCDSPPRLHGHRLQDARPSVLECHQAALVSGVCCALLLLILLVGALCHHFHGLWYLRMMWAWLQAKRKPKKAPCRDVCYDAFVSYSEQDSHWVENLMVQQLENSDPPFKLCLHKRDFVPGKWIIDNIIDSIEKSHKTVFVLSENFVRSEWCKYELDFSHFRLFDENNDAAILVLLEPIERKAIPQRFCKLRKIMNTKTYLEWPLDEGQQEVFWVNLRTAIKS

For the sequence RQIKIWFQNRRMKWKKSHCRVLLI (TIP1), the “secretion level of TNF-α” value with TLR9 is recorded as “decreased”. Further, the “secretion level of IL-1β” value in the assay on NLRP3 inflammasome was “decreased”. In addition, in assay [1], the “alanine aminotransferase (ALT), hepatic damage marker” value is given as “remarkably decreased”; the “aspartate aminotransferase (AST), hepatic damage marker” value is recorded as “remarkably decreased”; the “blood urea nitrogen (BUN), renal damage marker” value was “remarkably decreased”; the “creatinine (Cr), renal damage marker” value is listed as “remarkably decreased”. Also, in assay [1], the “secretion level of IL-6 in plasma” value is on record as “remarkably decreased” and the “secretion level of TNF-α in plasma” value is on record as “remarkably decreased”. In assay [2] (setting [3]), the arthritis index increase entry was “inhibited”, the “body weight loss caused by induction of arthritis” value was “inhibited”, the foot volume result was “inhibited” and the squeaking entry is given as “inhibited”. In addition, the “severely swollen foot (visual observation)” value in assay [2] (TIP1 i.p., FIG. 19(b)) was “alleviated similarly to the normal mice”. In addition, in assay [2] (knee joint, once daily for 30 days), the “histopathological modification in cartilage, subchondral bone, femur, tibia and meniscus (H&E)” value was “decreased”. The “bones damaged by the CIA model (Micro-CT 3D image, bone mineral density)” value in assay [2] (once daily for 30 days, sacrificed day 45) is “alleviated similarly to the normal mice”. Moreover, the NO secretion level result in the assay on hPBMC cells was “highest decreasing effect on NO secretion level”. The “secretion level of TNF-α” value with TLR7/8 was “decreased”. Further, in the assay with RAW 264.7 cells (DAF-FM), the “generation level of NO in the cytoplasm” value is “effectively decreased”. In addition, the “generation level of ROS in the cytoplasm” value in the assay with RAW 264.7 cells (DCF-DA) is “effectively decreased”. Moreover, in the assay with TLR1/2, the “secretion level of TNF-α” value is reported as “decreased”.
